How the values were obtained:
[1] = system: Alternaria solani; test: Activity against the early blight pathogen Alternaria solani in the microtiterplate test; assay type: cell-based; conditions: 31 ppm active substance; MTP measured at 405 nm 7 days after inoculation, 18° C.
[2] = system: Sclerotinia sclerotiorum; test: Preventative fungicidal control of white mold on oilseed rape caused by Sclerotinia sclerotiorum; assay type: in vivo; conditions: 100 g/ha, assessed after 14 days, untreated plants 100% infected
Description: The compound was dissolved in a mixture of acetone and/or dimethylsulfoxide and the wetting agent/emulsifier Wettol, which is based on ethoxylated alkylphenoles, in a ratio (volume) solvent-emulsifier of 99 to 1 to give a total volume of 5 ml. Subsequently, water was added to total volume of 100 ml. This stock solution was then diluted with the described solvent-emulsifier-water mixture to the final concentration given in the table below. Oilseed rapes were grown in pots to the 13 to 14 leaf stage. These plants were sprayed to run-off with previously described spray solution, containing the concentration of active ingredient or their mixture mentioned in the table below. The plants could air-dry. The next day the applicated rape petals were fixed with 25 μl of 2.5% methylcellulose on leaf 1 and 2. 25 μl of a spore suspension of Sclerotinia sclerotiorum was pipetted on each fixed rape petal. After 14 days at 20° C. and a relative humidity of 60% the extent of fungal attack on the leaves was visually assessed as % diseased leaf area.

[3] = system: Fusarium culmorum; test: Activity against Fusarium culmorum in the microtiterplate test; assay type: cell-based; conditions: 31 ppm active substance; MTP measured at 405 nm 7 days after inoculation, 18° C.
Description: The active compounds were formulated separately as a stock solution having a concentration of 10000 ppm in dimethyl sulfoxide.
The stock solutions were mixed according to the ratio, pipetted onto a micro titer plate (MTP) and diluted with water to the stated concentrations. A spore suspension of Fusarium culmorum in an aqueous biomalt or yeast-bactopeptone-glycerine or DOB solution was then added. The plates were placed in a water vapor-saturated chamber at a temperature of 18° C. Using an absorption photometer, the MTPs were measured at 405 nm 7 days after the inoculation.

Compound | growth of the pathogen [1] [%] | growth of the pathogen (% diseased leaf area) [2] | growth of the pathogen [3] [%]
Cc1cc(C2NC(C)C(C)(C)Oc3c(F)cccc32)cnc1C (mixture of isomers) [Ex-6] | 23 |  | 
Cc1cc(C2NC(C)C(C)(C)Oc3c(F)cccc32)cnc1C(F)F (mixture of isomers) [Ex-7] | 23 | at most 1% | 
Cc1cc(C2c3ccccc3OCC3(CC3)N2C)cnc1C(F)F (centres unmarked) [Ex-1, 5-(6-(difluoromethyl)-5-methylpyridin-3-yl)-4-methyl-4,5-dihydro-2H-spiro[benzo[f][1,4]oxazepine-3,1′-cyclopropane]] | 23 |  | 1

Reference: US20260165325A1, “NEW SUBSTITUTED TETRAHYDROBENZOXAZEPINE” (BASF SE, priority 2022, published 2026)
